Source: article PMC5572662 (ChemMedChem, 2017)
Entries after “also recorded” stand apart in the source; their conditions may differ. Square brackets hold non-standard residues; d marks the D form. Peptide text beside a SMILES is read from it. * marks the point of attachment. NH(4-amidinobenzyl) = N=C(N)c1ccc(CN*)cc1; Tle = CC(C)(C)[C@H](N)C(=O)O; PhAc = O=C(Cc1ccccc1)*

How the values were obtained:
[1] = system: Pseudomonas aeruginosa exotoxin A; settings: living rodents ref 8; cited from earlier work
anthrax toxin = settings: living rodents ref 8; cited from earlier work
[2] = molecular target: recombinant soluble human furin (Homo sapiens, UniProt P09958); assay: Enzyme kinetic measurements with recombinant soluble human furin; type: biochemical; settings: for fold improved Ki (inhibition constant) versus parent analogue: 20 versus 18 (P3 Val to Tle), 21 and 22 versus the P2 Lys analogues; for Ki: Furin Ki, as given in the text in nM
Sequence of recombinant soluble human furin (P09958 108-715 limits assumed): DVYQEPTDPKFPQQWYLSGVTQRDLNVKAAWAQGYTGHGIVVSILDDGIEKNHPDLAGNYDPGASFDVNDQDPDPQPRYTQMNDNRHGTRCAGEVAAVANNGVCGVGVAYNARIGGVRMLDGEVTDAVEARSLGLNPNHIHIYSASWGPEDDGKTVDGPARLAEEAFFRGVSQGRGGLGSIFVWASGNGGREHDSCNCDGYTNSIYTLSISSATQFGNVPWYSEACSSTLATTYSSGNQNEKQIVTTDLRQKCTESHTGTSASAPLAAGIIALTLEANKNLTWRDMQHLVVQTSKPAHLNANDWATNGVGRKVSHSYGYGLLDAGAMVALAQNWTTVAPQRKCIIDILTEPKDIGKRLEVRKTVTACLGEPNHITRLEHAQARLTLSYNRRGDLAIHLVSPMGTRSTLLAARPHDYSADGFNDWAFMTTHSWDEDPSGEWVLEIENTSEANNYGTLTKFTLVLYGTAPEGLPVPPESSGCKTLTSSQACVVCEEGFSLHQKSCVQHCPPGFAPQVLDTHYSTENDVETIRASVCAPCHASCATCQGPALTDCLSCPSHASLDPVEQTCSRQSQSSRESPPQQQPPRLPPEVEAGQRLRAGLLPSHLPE

E3-E2 (p62) cleavage = assay: Western blot of E3-E2; type: cell-based, Semliki Forest virus; settings: 25 μM inhibitor, BHK-21 cells, SFV MOI 10, 8 h post-infection
[3] = system: Semliki Forest virus (SFV); assay: Semliki Forest virus replication in BHK-21 cells, titers by plaque assay; type: cell-based; settings: for reduction of SFV virus titer: 25 μM inhibitor, MOI 0.01, plaque assay 24 h post-infection
[4] = system: chikungunya virus (CHIKV); assay: Chikungunya virus replication in BHK-21 cells, titers by plaque assay; type: cell-based; settings: 25 μM inhibitor, MOI 0.1, plaque assay 24 h post-infection

| Molecule | fold improved Ki (inhibition constant) versus parent analogue [2] | Ki [2] | also measured |
| --- | --- | --- | --- |
| hexa-D-arginine | – | – | protective effect against Pseudomonas aeruginosa exotoxin A [1]: protective effect; protective effect against anthrax toxin (anthrax toxin): protective effect |
| CC(=O)N[C@@H](CC(C)C)C(=O)N[C@@H](CC(C)C)C(=O)N[C@@H](CC(C)C)C(=O)N[C@@H](CC(C)C)C(=O)N[C@@H](CCCNC(=N)N)C(=O)N[C@H](C(=O)N[C@@H](CCCNC(=N)N)C(=O)NCc1ccc(C(=N)N)cc1)C(C)(C)C [Compound 22, Ac-Leu-Leu-Leu-Leu-Arg-Tle-Arg-4-Amba] (Ac-LLLLR[Tle]R-{NH(4-amidinobenzyl)}) | ~ 2 fold | – | – |
| CC(=O)N[C@@H](CC(C)C)C(=O)N[C@@H](CC(C)C)C(=O)N[C@@H](CC(C)C)C(=O)N[C@@H](CC(C)C)C(=O)N[C@@H](CCCNC(=N)N)C(=O)N[C@H](C(=O)N[C@@H](CCCNC(=N)N)C(=O)NCc1ccc(C(=N)N)cc1)C(C)C [Compound 21, Ac-Leu-Leu-Leu-Leu-Arg-Val-Arg-4-Amba] (Ac-LLLLRVR-{NH(4-amidinobenzyl)}) | ~ 2 fold | – | – |
| CC(=O)N[C@@H](CC(C)C)C(=O)N[C@@H](CC(C)C)C(=O)N[C@@H](CC(C)C)C(=O)N[C@@H](CC(C)C)C(=O)N[C@@H](CCCN=C(N)N)C(=O)N[C@H](C(=O)N[C@@H](CCCCN)C(=O)NCc1ccc(C(=N)N)cc1)C(C)C [Compound 18, Ac-Leu-Leu-Leu-Leu-Arg-Val-Lys-4-Amba, reference compound] (Ac-LLLLRVK-{NH(4-amidinobenzyl)}) | – | ~0.5 nM | – |
| CC(C)[C@H](NC(=O)Cc1cccc(CN)c1)C(=O)N[C@@H](CCCNC(=N)N)C(=O)NCc1ccc(C(=N)N)cc1 [Compound 23, 3-AMe-Phac-Val-Arg-4-Amba] | – | 48.2 nM | – |
| CC(C)[C@H](NC(=O)[C@H](CCCNC(=N)N)NC(=O)[C@H](CCCNC(=N)N)NC(=O)[C@H](N)CCCNC(=N)N)C(=O)N[C@@H](CCCNC(=N)N)C(=O)NCc1ccc(C(=N)N)cc1 [Compound 9, H-DArg-Arg-Arg-Val-Arg-4-Amba] (H-[dR]RRVR-{NH(4-amidinobenzyl)}) | – | – | inhibition of E3-E2 (p62) cleavage (E3-E2 (p62) cleavage): Inhibition of E3-E2 (p62) cleavage; reduction of SFV virus titer [3]: less than one order of magnitude; also recorded: strongly reduced titers; concentration dependence of inhibition of SFV replication ([3]; MOI 0.01, 24 h post-infection (Figure 4)): concentration-dependent inhibition of SFV replication; reduction of CHIKV virus titer [4]: strongly reduced titers |
| CC(C)[C@H](NC(=O)Cc1ccc(CN)cc1)C(=O)N[C@@H](CCCNC(=N)N)C(=O)NCc1ccc(C(=N)N)cc1 [Compound 24, 4-AMe-Phac-Val-Arg-4-Amba] | – | 37.8 nM | – |
| CC(=O)N[C@H](CC(C)C)C(=O)N[C@@H](CC(C)C)C(=O)N[C@@H](CC(C)C)C(=O)N[C@@H](CC(C)C)C(=O)N[C@@H](CCCNC(=N)N)C(=O)N[C@H](C(=O)N[C@@H](CCCCN)C(=O)NCc1ccc(C(=N)N)cc1)C(C)C [Compound 19, Ac-DLeu-Leu-Leu-Leu-Arg-Val-Lys-4-Amba, reference compound] (Ac-[dL]LLLRVK-{NH(4-amidinobenzyl)}) | – | ~0.5 nM | – |
| CC(C)[C@H](NC(=O)[C@H](CCCNC(=N)N)NC(=O)[C@H](CCCNC(=N)N)NC(=O)[C@H](CCCNC(=N)N)NC(=O)Cc1ccccc1)C(=O)N[C@@H](CCCNC(=N)N)C(=O)NCc1ccc(C(=N)N)cc1 [Compound 5, Phac-Arg-Arg-Arg-Val-Arg-4-Amba] (PhAc-RRRVR-{NH(4-amidinobenzyl)}) | – | – | reduction of SFV virus titer [3]: less than one order of magnitude |
| CC(=O)N[C@@H](CC(C)C)C(=O)N[C@@H](CC(C)C)C(=O)N[C@@H](CC(C)C)C(=O)N[C@@H](CC(C)C)C(=O)N[C@@H](CCCNC(=N)N)C(=O)N[C@H](C(=O)N[C@@H](CCCCN)C(=O)NCc1ccc(C(=N)N)cc1)C(C)(C)C [Compound 20, Ac-Leu-Leu-Leu-Leu-Arg-Tle-Lys-4-Amba] (Ac-LLLLR[Tle]K-{NH(4-amidinobenzyl)}) | 2.5 fold | – | – |
